Reference: the supplement of paper PMC10307832

Legend:
Test in all cases: relative viability (nuclei count vs DMSO), 5 days (fraction); higher = more cells survive
ABC-1 = tested on: ABC-1
Procedure, shortened: (§1)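 For relative viability, nuclei counts in treated wells were divided by those in vehicle wells. Lung cancer cell lines had been pin-tool dosed in 1536-well plates the day after seeding and cultured for 5 days, then fixed and stained in one step (final 0.05% Triton X-100, 1% formaldehyde, 1 ug/ml Hoechst) and imaged at 4×. Doses were one drug alone or a fixed anchor-drug dose plus five library-drug doses (not always all listed) in √10 steps, and values are duplicate-plate medians.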

COR-L23 = tested on: COR-L23
Procedure, shortened: as §1

EPLC-272H = tested on: EPLC-272H
Procedure, shortened: as §1

HARA = tested on: HARA
Procedure, shortened: as §1

HCC-15 = tested on: HCC-15
Procedure, shortened: as §1

HCC-44 = tested on: HCC-44
Procedure, shortened: as §1

HOP-62 = tested on: HOP-62
Procedure, shortened: as §1

LC-2-ad = tested on: LC-2-ad
Procedure, shortened: as §1

LU99A = tested on: LU99A
Procedure, shortened: as §1

NCI-H1355 = tested on: NCI-H1355
Procedure, shortened: as §1

NCI-H1651 = tested on: NCI-H1651
Procedure, shortened: as §1

NCI-H1915 = tested on: NCI-H1915
Procedure, shortened: as §1

NCI-H1993 = tested on: NCI-H1993
Procedure, shortened: as §1

NCI-H2023 = tested on: NCI-H2023
Procedure, shortened: as §1

NCI-H2085 = tested on: NCI-H2085
Procedure, shortened: as §1

NCI-H2126 = tested on: NCI-H2126
Procedure, shortened: as §1

NCI-H2347 = tested on: NCI-H2347
Procedure, shortened: as §1

NCI-H650 = tested on: NCI-H650
Procedure, shortened: as §1

NCI-H838 = tested on: NCI-H838
Procedure, shortened: as §1

PC-14 = tested on: PC-14
Procedure, shortened: as §1

SW 1573 = tested on: SW 1573
Procedure, shortened: as §1

UMC-11 = tested on: UMC-11
Procedure, shortened: as §1

Nc1ccn([C@@H]2O[C@H](CO)[C@@H](O)[C@@H]2O)c(=O)n1 [Cytarabine] + CS(=O)(=O)N1CCN(Cc2cc3nc(-c4cccc5[nH]ncc45)nc(N4CCOCC4)c3s2)CC1 [Pictilisib] (partner 1 µM)
relative viability (ABC-1; first compound 0.005 µM): 0.939
relative viability (ABC-1; first compound 0.01581 µM): 0.679
relative viability (ABC-1; first compound 0.05 µM): 0.698
relative viability (ABC-1; first compound 0.1581 µM): 0.635
relative viability (ABC-1; first compound 0.5 µM): 0.325
relative viability (COR-L23; first compound 0.005 µM): 0.637
relative viability (COR-L23; first compound 0.01581 µM): 0.51
relative viability (COR-L23; first compound 0.05 µM): 0.532
relative viability (COR-L23; first compound 0.1581 µM): 0.171
relative viability (COR-L23; first compound 0.5 µM): 0.112
relative viability (EPLC-272H; first compound 0.005 µM): 0.246
relative viability (EPLC-272H; first compound 0.01581 µM): 0.297
relative viability (EPLC-272H; first compound 0.05 µM): 0.242
relative viability (EPLC-272H; first compound 0.1581 µM): 0.187
relative viability (EPLC-272H; first compound 0.5 µM): 0.207
relative viability (HARA; first compound 0.005 µM): 0.316
relative viability (HARA; first compound 0.01581 µM): 0.368
relative viability (HARA; first compound 0.05 µM): 0.163
relative viability (HARA; first compound 0.1581 µM): 0.106
relative viability (HARA; first compound 0.5 µM): 0.117
relative viability (HCC-15; first compound 0.005 µM): 0.709
relative viability (HCC-15; first compound 0.01581 µM): 0.704
relative viability (HCC-15; first compound 0.05 µM): 0.672
relative viability (HCC-15; first compound 0.1581 µM): 0.504
relative viability (HCC-15; first compound 0.5 µM): 0.453
relative viability (HCC-44; first compound 0.005 µM): 0.492
relative viability (HCC-44; first compound 0.01581 µM): 0.599
relative viability (HCC-44; first compound 0.05 µM): 0.5
relative viability (HCC-44; first compound 0.1581 µM): 0.349
relative viability (HCC-44; first compound 0.5 µM): 0.385
relative viability (HOP-62; first compound 0.005 µM): 0.741
relative viability (HOP-62; first compound 0.01581 µM): 0.469
relative viability (HOP-62; first compound 0.05 µM): 0.315
relative viability (HOP-62; first compound 0.1581 µM): 0.118
relative viability (HOP-62; first compound 0.5 µM): 0.0794
relative viability (LC-2-ad; first compound 0.005 µM): 0.402
relative viability (LC-2-ad; first compound 0.01581 µM): 0.419
relative viability (LC-2-ad; first compound 0.05 µM): 0.361
relative viability (LC-2-ad; first compound 0.1581 µM): 0.212
relative viability (LC-2-ad; first compound 0.5 µM): 0.16
relative viability (LU99A; first compound 0.005 µM): 0.372
relative viability (LU99A; first compound 0.01581 µM): 0.305
relative viability (LU99A; first compound 0.05 µM): 0.282
relative viability (LU99A; first compound 0.1581 µM): 0.308
relative viability (LU99A; first compound 0.5 µM): 0.299
relative viability (NCI-H1355; first compound 0.005 µM): 0.398
relative viability (NCI-H1355; first compound 0.01581 µM): 0.392
relative viability (NCI-H1355; first compound 0.05 µM): 0.205
relative viability (NCI-H1355; first compound 0.1581 µM): 0.302
relative viability (NCI-H1355; first compound 0.5 µM): 0.196
relative viability (NCI-H1651; first compound 0.005 µM): 0.446
relative viability (NCI-H1651; first compound 0.01581 µM): 0.522
relative viability (NCI-H1651; first compound 0.05 µM): 0.533
relative viability (NCI-H1651; first compound 0.1581 µM): 0.17
relative viability (NCI-H1651; first compound 0.5 µM): 0.165
relative viability (NCI-H1915; first compound 0.005 µM): 0.866
relative viability (NCI-H1915; first compound 0.01581 µM): 0.853
relative viability (NCI-H1915; first compound 0.05 µM): 0.589
relative viability (NCI-H1915; first compound 0.1581 µM): 0.274
relative viability (NCI-H1915; first compound 0.5 µM): 0.233
relative viability (NCI-H1993; first compound 0.005 µM): 0.84
relative viability (NCI-H1993; first compound 0.01581 µM): 0.815
relative viability (NCI-H1993; first compound 0.05 µM): 0.765
relative viability (NCI-H1993; first compound 0.1581 µM): 0.712
relative viability (NCI-H1993; first compound 0.5 µM): 0.525
relative viability (NCI-H2023; first compound 0.005 µM): 0.193
relative viability (NCI-H2023; first compound 0.01581 µM): 0.137
relative viability (NCI-H2023; first compound 0.05 µM): 0.112
relative viability (NCI-H2023; first compound 0.1581 µM): 0.0708
relative viability (NCI-H2023; first compound 0.5 µM): 0.0698
relative viability (NCI-H2085; first compound 0.005 µM): 0.422
relative viability (NCI-H2085; first compound 0.01581 µM): 0.433
relative viability (NCI-H2085; first compound 0.05 µM): 0.401
relative viability (NCI-H2085; first compound 0.1581 µM): 0.367
relative viability (NCI-H2085; first compound 0.5 µM): 0.281
relative viability (NCI-H2126; first compound 0.005 µM): 0.441
relative viability (NCI-H2126; first compound 0.01581 µM): 0.432
relative viability (NCI-H2126; first compound 0.05 µM): 0.382
relative viability (NCI-H2126; first compound 0.1581 µM): 0.312
relative viability (NCI-H2126; first compound 0.5 µM): 0.29
relative viability (NCI-H2347; first compound 0.005 µM): 0.536
relative viability (NCI-H2347; first compound 0.01581 µM): 0.811
relative viability (NCI-H2347; first compound 0.05 µM): 0.778
relative viability (NCI-H2347; first compound 0.1581 µM): 0.482
relative viability (NCI-H2347; first compound 0.5 µM): 0.588
relative viability (NCI-H650; first compound 0.005 µM): 0.831
relative viability (NCI-H650; first compound 0.01581 µM): 0.688
relative viability (NCI-H650; first compound 0.05 µM): 0.419
relative viability (NCI-H650; first compound 0.1581 µM): 0.224
relative viability (NCI-H650; first compound 0.5 µM): 0.214
relative viability (NCI-H838; first compound 0.005 µM): 0.334
relative viability (NCI-H838; first compound 0.01581 µM): 0.495
relative viability (NCI-H838; first compound 0.05 µM): 0.435
relative viability (NCI-H838; first compound 0.1581 µM): 0.257
relative viability (NCI-H838; first compound 0.5 µM): 0.243
relative viability (PC-14; first compound 0.01581 µM): 0.698
relative viability (PC-14; first compound 0.05 µM): 0.49
relative viability (PC-14; first compound 0.5 µM): 0.126
relative viability (SW 1573; first compound 0.005 µM): 0.362
relative viability (SW 1573; first compound 0.01581 µM): 0.378
relative viability (SW 1573; first compound 0.05 µM): 0.317
relative viability (SW 1573; first compound 0.1581 µM): 0.134
relative viability (SW 1573; first compound 0.5 µM): 0.106
relative viability (UMC-11; first compound 0.005 µM): 0.488
relative viability (UMC-11; first compound 0.01581 µM): 0.411
relative viability (UMC-11; first compound 0.05 µM): 0.318
relative viability (UMC-11; first compound 0.1581 µM): 0.175
relative viability (UMC-11; first compound 0.5 µM): 0.161
